Five compounds from ChEMBL document CHEMBL1134667, “Physicochemical determinants of passive membrane permeability: role of solute hydrogen-bonding potential and volume” (J Med Chem, 2001) can be followed below.

Data set [1] is described as follows: Apical to basolateral effective permeability. The conditions noted are these: not told.
The nature of data set [2]: Partition coefficient (logP) (heptane). As to conditions: heptane/water.
Data set [3] can be described thus: Basolateral to apical effective permeability. As to conditions: not told.
Data set [4] can be described thus: Partition coefficient (logP) (heptane/glycol). As to conditions: heptane/ethylene glycol.
A short description of data set [5]: Partition coefficient (logP). The conditions noted are these: octanol/water.

`CC(=O)NCC(=O)NCCc1ccccc1` displayed a Papp A→B in data set [1] of 21.9 ×10⁻⁶ cm/s. Further, the values for the logP in data set [2], in data set [4] and in data set [5] were -3.73, -5 and 0.48, respectively. Moreover, the Papp B→A in data set [3] was 20.6 ×10⁻⁶ cm/s.
Regarding `CC(=O)N[C@@H](C(=O)NCCc1ccccc1)C(C)C`, the logP in data set [2] is -2.64; in data set [4], -3.77; in data set [5], 1.59.
In data set [1], `CNC(=O)[C@@H](Cc1ccccc1)NC(=O)[C@H](NC(C)=O)C(C)C` displayed a Papp A→B of 0.91 ×10⁻⁶ cm/s. In addition, the logP is -5.33 in data set [2], -5.79 in data set [4] and 0.66 in data set [5]. For the same compound, in data set [3], the Papp B→A was 1.84 ×10⁻⁶ cm/s.
Turning to `CC(=O)N[C@H](Cc1ccccc1)C(=O)NCCc1ccccc1`, the logP is -2 in data set [2], -3.7 in data set [4] and 2.32 in data set [5].
In data set [1], `CC(=O)N[C@H](CC1CCCCC1)C(=O)NCCc1ccccc1` showed a Papp A→B of 58.3 ×10⁻⁶ cm/s. The results for the logP in data set [2], in data set [4] and in data set [5] were -0.9, -3.41 and 3.13, respectively. In addition, the Papp B→A in data set [3] came to 58.4 ×10⁻⁶ cm/s.
